Measurements: US12605401B2, “Polymers, compositions and methods for treating hyperuricemia” (WATERSTONE PHARMACEUTICALS (WUHAN) CO., LTD., priority 2021, dated 2026)

Test system: chronic hyperuricemia model rats
Assay: Chronic hyperuricemia model, adenine + ethambutol, 21 days; serum UA, CREA, UREA
Assay type: in vivo
Method: 48 rats were randomly divided into 6 groups with 8 rats in each group. The groups were as follows: Blank Group (Vehicle, ig), Model Group (Vehicle, ig), Positive control group (Allopurinol, 10 mg/kg, ig), Compound 1 group (Sevelamer carbonate, 250 mg/kg, ig), Compound 2 low-dose group (TAA polymer, 50 mg/kg, ig), Compound 2 high-dose group (TAA polymer, 250 mg/kg, ig). Except for blank group, rats in other groups were modeled according to the chronic modeling method. The modeling method was as follows: rats were given Adenine (100 mg/kg)+Ethambutol (250 mg/kg) by gavage, once a day, for 21 days. Animals in blank group and model group were given equal volume of normal saline by gavage. Animals in positive control group were given positive 10 mg/kg Alloalcohol, once in the first week, once in the second week, once a day for 3 days before sampling in the third week. Animals in other groups were given intragastric administration once a day for 14 consecutive days from the 8th day of modeling. Blood samples were taken at Day 21 after modeling, and serum samples were separated and stored at −80° C. for biochemical detection.
After 21 days of modeling (14 days of drug treatment), blood samples were taken and serum separation was performed to detect three renal functions (UA, CREA and UREA) (See Table 1 and FIGS. 2a, 2b and 2c). Compound 1 is Sevelamer carbonate and Compound 2 is a graft polytriallylamine with 50% molar percentage of the moiety to the tertiary amine in polytriallylamine.

Oc1ncnc2[nH]ncc12 [Allopurinol]
CREA, effect in words (10 mg/kg ig, day 21): significantly reduced | UA, effect in words (10 mg/kg ig, day 21): significantly reduced | UREA, effect in words (10 mg/kg ig, day 21): significantly reduced | CREA and UREA, conclusion in words (protective effect on the kidney) (conclusion over the dose groups): can decrease
